{"source": "patent US20260256863A1", "about": "“COMPOSITION, COMPRISING CINNAMOMUM CASSIA EXTRACT HAVING INNOVATIVE CKD EXTRACTION TECHNOLOGY (ICET) TECHNOLOGY APPLIED THERETO, FOR PREVENTING, ALLEVIATING, OR TREATING GASTRITIS OR PEPTIC ULCER” (CHONG KUN DANG PHARMACEUTICAL CORP., priority 2022, published 2026)", "tested_on": "acute or chronic gastritis patients with one or more erosions", "test": "Clinical trial in acute or chronic gastritis patients (gastroscopy, Example 3)", "assay_type": "in vivo, human", "conditions": "300 mg, 2 weeks, N=42", "protocol": "The Cinnamomum cassia extract of the Preparation Example 1 according to the present disclosure, placebo, and active control drug were administered to acute and chronic gastritis patients to compare and evaluate the effectiveness and safety of Cinnamomum cassia extract according to the present disclosure in a searching manner and to determine an appropriate dose. Specifically, acute or chronic gastritis patients with one or more erosions identified in a gastroscopy performed within 7 days from the start date of administration of investigational medical product were divided into the following test groups and administered for 2 weeks. • Test group I (group administered with 225 mg of Cinnamomum cassia extract according to the present disclosure) • Test group II (group administered with 450 mg of Cinnamomum cassia extract according to the present disclosure) • Control group I (group administered with placebo) • Control group II (group administered with 180 mg of ethanol soft ext. (20->1) of 95% artemisia) • Control group III (group administered with 300 mg rebamipide) • (1) Effective rate on gastroscopy: The proportion of test subjects whose erosion score on gastroscopy reduced by more than 50% after 2 weeks of administration (visit 3) compared to baseline (visit 1) was calculated according to the following Equation 1, and evaluated according to the criteria in Table 3. [table] • (1) Complete cure rate on gastroscopy: The proportion of test subjects who were completely cured to normal on gastroscopy (0 erosions: erosion score 1 point) after 2 weeks of administration (visit 3) compared to baseline (visit 1) was calculated and evaluated according to the following Equation 2.", "data": [{"smiles": "O=C(NC(Cc1cc(=O)[nH]c2ccccc12)C(=O)O)c1ccc(Cl)cc1", "note": "(stereo not shown) [rebamipide]", "values": [{"measurement": "Complete cure rate on gastroscopy", "result": 40.48, "unit": "%"}, {"measurement": "Effective example people (complete cure rate on gastroscopy)", "result": 17, "unit": "people"}, {"measurement": "Effective example people (effective rate on gastroscopy)", "result": 20, "unit": "people"}, {"measurement": "Effective rate on gastroscopy", "result": 47.62, "unit": "%"}]}]}
